Experimental data: patent publication US20260232767A1, “INTERLEUKIN-23 RECEPTOR ANTAGONIST PEPTIDES FOR USE IN THE TREATMENT OF PSORIASIS” (Janssen Pharmaceutica NV, priority 2023, published 2026)

System: subjects with moderate-to-severe plaque psoriasis
Experiment: IGA score, Example 1
Type: in vivo, human
Settings: Week 16
Procedure: The Investigator's Global Assessment (IGA) documents the investigator's assessment of the participant's psoriasis at a given time point. Overall lesions are graded for induration, erythema, and scaling. The participant's psoriasis is assessed as cleared (0), minimal (1), mild (2), moderate (3), or severe (4).
This was a randomized, double-blind, placebo-controlled, dose-ranging, parallel group, multicenter, interventional study in subjects with moderate-to-severe plaque psoriasis. A target of 240 subjects were enrolled in this study with 40 subjects planned per intervention group.
Clinician-reported outcomes including Psoriasis Area and Severity Index (PASI), Body Surface Area (BSA), Investigator's Global Assessment (IGA), Nail Psoriasis Area and Severity Index (NAPSI), Fingernail Physician's Global Assessment (f-PGA), Static Physician's Global Assessment of Genitalia (s-PGA-G), Physician's Global Assessment of Hands and/or Feet (hf-PGA), and Scalp Specific Investigator Global Assessment (ss-IGA) were obtained at Week 0, 8, and 16. PASI and IGA were also obtained at Weeks 1, 2, 4, and 12, and at Week 20, four weeks after the administration of the tablets has stopped.

[1] = 25 mg BID, peak plasma conc. <Q1, N=2
[2] = 25 mg BID, peak plasma conc. Q1 to <Q2, N=2
[3] = 25 mg BID, peak plasma conc. Q2 to <Q3, N=2
[4] = 25 mg BID, peak plasma conc. ≥Q3, N=2
[5] = 25 mg BID, trough plasma conc <Q1
[6] = 25 mg BID, trough plasma conc Q1 to <Q2
[7] = 25 mg BID, trough plasma conc Q2 to <Q3
[8] = 25 mg BID, trough plasma conc ≥Q3
[9] = 25 mg QD, peak plasma conc. <Q1, N=2
[10] = 25 mg QD, peak plasma conc. Q1 to <Q2, N=2
[11] = 25 mg QD, peak plasma conc. Q2 to <Q3, N=2
[12] = 25 mg QD, peak plasma conc. ≥Q3, N=2
[13] = 25 mg QD, trough plasma conc <Q1
[14] = 25 mg QD, trough plasma conc Q1 to <Q2
[15] = 25 mg QD, trough plasma conc Q2 to <Q3
[16] = 25 mg QD, trough plasma conc ≥Q3
[17] = 50 mg QD, peak plasma conc. <Q1, N=2
[18] = 50 mg QD, peak plasma conc. Q1 to <Q2, N=2
[19] = 50 mg QD, peak plasma conc. Q2 to <Q3, N=2
[20] = 50 mg QD, peak plasma conc. ≥Q3, N=2
[21] = 50 mg QD, trough plasma conc <Q1
[22] = 50 mg QD, trough plasma conc Q1 to <Q2
[23] = 50 mg QD, trough plasma conc Q2 to <Q3
[24] = 50 mg QD, trough plasma conc ≥Q3
[25] = 100 mg BID, peak plasma conc. <Q1, N=2
[26] = 100 mg BID, peak plasma conc. Q1 to <Q2, N=3
[27] = 100 mg BID, peak plasma conc. Q2 to <Q3, N=2
[28] = 100 mg BID, peak plasma conc. ≥Q3, N=3
[29] = 100 mg BID, trough plasma conc <Q1

For `CC(=O)NCCCC[C@@H]1NC(=O)[C@H](Cc2c[nH]c3c(C)cccc23)NC(=O)[C@H]([C@@H](C)O)NC(=O)[C@H](CC(N)=O)NC(=O)[C@@H](NC(C)=O)C(C)(C)SSC(C)(C)[C@@H](C(=O)N[C@@H](Cc2ccc(OCCN)cc2)C(=O)N[C@@H](Cc2ccc3ccccc3c2)C(=O)NC2(C(=O)N[C@@H](CCC(=O)O)C(=O)N[C@@H](CC(N)=O)C(=O)N[C@@H](Cc3cccnc3)C(=O)N(C)CC(N)=O)CCOCC2)NC1=O` [IL-23 receptor antagonist peptide, Ac-[Pen]*-N-T-[W(7-Me)]-[Lys(Ac)]-[Pen]*-Phe[4-(2-aminoethoxy)]-[2-Nal]-[THP]-E-N-[3-Pal]-Sarc-NH2 (*[Pen]-[Pen]* formdisulfidebond)], the “IGA 0 or 1 treatment difference vs placebo” value (25 mg BID) was 39.5% (21.7%,, the “IGA 0 treatment difference vs placebo” value (25 mg BID) was 14.6% (4.0%, and the “Subjects achieving IGA Score = 0” value (25 mg BID) was “(14.6%)”. The “Subjects achieving IGA Score = 0 or 1” value (25 mg BID) was “(51.2%)”, the “IGA score 0, %” value (25 mg BID, N=41) was “(14.6) %” and the “IGA score 0/1, %” value (25 mg BID, N=41) was “(51.2) %”. For the same compound, the “IGA Score = 0, n subjects” value [1] was 0, the “IGA Score = 0 or 1, n subjects” value [1] was 0 and the “IGA Score = 0, n subjects” value [2] was 0. For the same compound, the “IGA Score = 0 or 1, % subjects” value [2] was “(50.0%)”, the “IGA Score = 0 or 1, n subjects” value [2] was 1 and the “IGA Score = 0, n subjects” value [3] was 0. For the same compound, the “IGA Score = 0 or 1, % subjects” value [3] was “(50.0%)”, the “IGA Score = 0 or 1, n subjects” value [3] was 1 and the “IGA Score = 0, % subjects” value [4] was “(50.0%)”. For the same compound, the “IGA Score = 0, n subjects” value [4] was 1, the “IGA Score = 0 or 1, % subjects” value [4] was “(50.0%)” and the “IGA Score = 0 or 1, n subjects” value [4] was 1. The “IGA Score = 0, subjects” value [5] was 2 (33.3%), the “IGA Score = 0 or 1, subjects” value [5] was 4 (66.7%) and the “IGA Score = 0, subjects” value [6] was 1 (16.7%). For the same compound, the “IGA Score = 0 or 1, subjects” value [6] was 1 (16.7%), the “IGA Score = 0, subjects” value [7] was 0 and the “IGA Score = 0 or 1, subjects” value [7] was 4 (66.7%). The “IGA Score = 0, subjects” value [8] was 2 (33.3%), the “IGA Score = 0 or 1, subjects” value [8] was 100.0% and the “IGA 0 or 1 treatment difference vs placebo” value (25 mg QD) was 27.9% (10.5%,. For the same compound, the “IGA 0 treatment difference vs placebo” value (25 mg QD) was 16.3% (5.3%,, the “Subjects achieving IGA Score = 0” value (25 mg QD) was “(16.3%)” and the “Subjects achieving IGA Score = 0 or 1” value (25 mg QD) was “(39.5%)”. For the same compound, the “IGA score 0, %” value (25 mg QD, N=43) was “(16.3) %”, the “IGA score 0/1, %” value (25 mg QD, N=43) was “(39.5) %” and the “IGA Score = 0, n subjects” value [9] was 0. The “IGA Score = 0 or 1, % subjects” value [9] was “(50.0%)”, the “IGA Score = 0 or 1, n subjects” value [9] was 1 and the “IGA Score = 0, n subjects” value [10] was 0. For the same compound, the “IGA Score = 0 or 1, % subjects” value [10] was “(50.0%)”, the “IGA Score = 0 or 1, n subjects” value [10] was 1 and the “IGA Score = 0, % subjects” value [11] was “(50.0%)”. For the same compound, the “IGA Score = 0, n subjects” value [11] was 1, the “IGA Score = 0 or 1, % subjects” value [11] was “(50.0%)” and the “IGA Score = 0 or 1, n subjects” value [11] was 1. The “IGA Score = 0, n subjects” value [12] was 0, the “IGA Score = 0 or 1, % subjects” value [12] was “(50.0%)” and the “IGA Score = 0 or 1, n subjects” value [12] was 1. For the same compound, the “IGA Score = 0, subjects” value [13] was 1 (20.0%), the “IGA Score = 0 or 1, subjects” value [13] was 2 (40.0%) and the “IGA Score = 0, subjects” value [14] was 2 (33.3%). The “IGA Score = 0 or 1, subjects” value [14] was 3 (50.0%), the “IGA Score = 0, subjects” value [15] was 0 and the “IGA Score = 0 or 1, subjects” value [15] was 1 (20.0%). For the same compound, the “IGA Score = 0, subjects” value [16] was 1 (16.7%), the “IGA Score = 0 or 1, subjects” value [16] was 4 (66.7%) and the “IGA 0 or 1 treatment difference vs placebo” value (50 mg QD) was 46.5% (29.1%,. The “IGA 0 treatment difference vs placebo” value (50 mg QD) was 34.9% (20.8%,, the “Subjects achieving IGA Score = 0” value (50 mg QD) was 15 (34.9%) and the “Subjects achieving IGA Score = 0 or 1” value (50 mg QD) was 25 (58.1%). For the same compound, the “IGA score 0, %” value (50 mg QD, N=43) was 34.9%, the “IGA score 0/1, %” value (50 mg QD, N=43) was 58.1% and the “IGA Score = 0, n subjects” value [17] was 0. For the same compound, the “IGA Score = 0 or 1, n subjects” value [17] was 0, the “IGA Score = 0, % subjects” value [18] was “(100.0%)” and the “IGA Score = 0, n subjects” value [18] was 2. The “IGA Score = 0 or 1, % subjects” value [18] was “(100.0%)”, the “IGA Score = 0 or 1, n subjects” value [18] was 2 and the “IGA Score = 0, n subjects” value [19] was 0. The “IGA Score = 0 or 1, % subjects” value [19] was “(100.0%)”, the “IGA Score = 0 or 1, n subjects” value [19] was 2 and the “IGA Score = 0, n subjects” value [20] was 0. The “IGA Score = 0 or 1, % subjects” value [20] was “(100.0%)”, the “IGA Score = 0 or 1, n subjects” value [20] was 2 and the “IGA Score = 0, subjects” value [21] was 1 (20.0%). For the same compound, the “IGA Score = 0 or 1, subjects” value [21] was 2 (40.0%), the “IGA Score = 0, subjects” value [22] was 3 (60.0%) and the “IGA Score = 0 or 1, subjects” value [22] was 4 (80.0%). For the same compound, the “IGA Score = 0, subjects” value [23] was 2 (40.0%), the “IGA Score = 0 or 1, subjects” value [23] was 2 (40.0%) and the “IGA Score = 0, subjects” value [24] was 2 (40.0%). For the same compound, the “IGA Score = 0 or 1, subjects” value [24] was 3 (60.0%), the “IGA 0 or 1 treatment difference vs placebo” value (100 mg BID) was 52.8% (36.0%, and the “IGA 0 treatment difference vs placebo” value (100 mg BID) was 45.3% (30.6%,. The “Subjects achieving IGA Score = 0” value (100 mg BID) was “(45.2%)”, the “Subjects achieving IGA Score = 0 or 1” value (100 mg BID) was “(64.3%)” and the “IGA score 0, %” value (100 mg BID, N=42) was 45.2%. The “IGA score 0/1, %” value (100 mg BID, N=42) was 64.3%, the “IGA Score = 0, % subjects” value [25] was “(50.0%)” and the “IGA Score = 0, n subjects” value [25] was 1. For the same compound, the “IGA Score = 0 or 1, % subjects” value [25] was “(100.0%)”, the “IGA Score = 0 or 1, n subjects” value [25] was 2 and the “IGA Score = 0, % subjects” value [26] was “(66.7%)”. The “IGA Score = 0, n subjects” value [26] was 2, the “IGA Score = 0 or 1, % subjects” value [26] was “(66.7%)” and the “IGA Score = 0 or 1, n subjects” value [26] was 2. For the same compound, the “IGA Score = 0, % subjects” value [27] was “(50.0%)”, the “IGA Score = 0, n subjects” value [27] was 1 and the “IGA Score = 0 or 1, % subjects” value [27] was “(50.0%)”. The “IGA Score = 0 or 1, n subjects” value [27] was 1, the “IGA Score = 0, % subjects” value [28] was “(66.7%)” and the “IGA Score = 0, n subjects” value [28] was 2. The “IGA Score = 0 or 1, % subjects” value [28] was “(100.0%)”, the “IGA Score = 0 or 1, n subjects” value [28] was 3 and the “IGA Score = 0, subjects” value [29] was 1 (25.0%). For the same compound, the “IGA Score = 0 or 1, subjects” value [29] was 3 (75.0%) and the “IGA Score = 0, subjects” value (100 mg BID, trough plasma conc Q1 to <Q2) was 2 (40.0%).
